Assay results reported in US12448655B2, “Antibiotic susceptibility of microorganisms and related methods and systems” (CALIFORNIA INSTITUTE OF TECHNOLOGY, priority 2017, dated 2025).

Key:
Escherichia coli = assay: Minimum inhibitory concentrations (MICs) of Enterobacteriaceae clinical isolates; assay type: cell-based
Text: (§1) Clinical isolates referenced, minimum inhibitory concentrations (MICs), and categorical susceptibility based on CLSI breakpoints The below list of organisms are examples of clinically-relevant susceptible and resistant Enterobacteriaceae clinical isolates. Minimum inhibitory concentrations (MICs) are provided in μg/mL for the antibiotics listed.
(§2) Isolates, growth conditions, and antibiotic exposure conditions. 25 de-identified clinical isolates were obtained from the UCLA Clinical Microbiology Laboratory (CML) and the CDC's Enterobacteriaceae Carbapenem Breakpoint panel. In the case of isolates obtained from the UCLA CML, MICs were determined as described previously. Genotypic testing of the two Ec and two Kp isolates selected for their lack of known β-lactamase genes was performed by UCLA CML using a previously published assay and separately at the Keck School of Medicine of USC using the FDA-approved Cepheid Xpert® Carba-R test. Whole genome sequencing of the single Ebs isolate selected for its lack of known resistance genes was performed by the CDC [3]. All isolates were stored as glycerol stocks at −80° C. Glycerol stocks were streaked onto Trypticase Soy Agar with 5% sheep's blood (Becton Dickinson, Franklin Lakes, NJ, USA) and grown overnight at 37° C. Prior to experiments, a small clump of cells was resuspended in 2 mL Brain Heart Infusion Broth (BHI, Becton Dickinson) at 37° C.+5% CO2 with 500 rpm shaking for 2 to 4 h until visibly turbid. OD600 of the cultures was then measured, and working cultures prepared at an OD600 of 0.01-0.07 and grown for 50-145 min at 37° C.+5% CO2 with 500 rpm. Working cultures were then diluted 10× into control and treated aliquots for antibiotic exposure. For validation experiments, antibiotic exposure was performed in 100 μL volumes consisting of 80 μL Mueller Hinton II Broth (Becton Dickinson), 5 μL nuclease-free H2O (NF—H2O), 5 μL 20× antibiotic stock solution, and 10 μL of working culture. In control aliquots, antibiotic stock solution was replaced with NF—H2O. For filtration experiments, antibiotic exposure was performed in 100 μL volumes consisting of 65 μL Mueller Hinton II Broth (Becton Dickinson), 21 μL nuclease-free H2O (NF—H2O), 4 μL 25× antibiotic stock solution, and 10 μL of working culture. In control aliquots, antibiotic stock solution was replaced with NF—H2O.

Klebsiella pneumoniae = assay: as above; assay type: cell-based
Text: as §1, §2

E. coli isolates = assay: Quantification of DNA release following antibiotic exposure, filtration and ddPCR (Example 27); assay type: cell-based, Escherichia coli; parameters: dose or concentration left out as unconfirmed; conditions: 15 min exposure, 0.22 μm filtration, ddPCR
Procedure: Filtration experiments. Filtration experiments were performed using E. coli isolates exposed to 0.5 μg/mL ertapenem for 15 min. Immediately following exposure, cultures were passed through 0.22 μm, 1.5 mL cellulose acetate centrifuge tube filters (Corning Costar Spin-X, Corning, NY) by adding 50 μL of sample to the filter and centrifuging for 4 minutes at 1000 ref. DNA was extracted from both the feed and filtrate using QuickExtract DNA Extraction Solution (Lucigen, Middleton, WI, USA). Samples were diluted 10× into extraction buffer and extracted according to manufacturer instructions. The concentration of the single copy E. coli uidA gene was then quantified in the feed and filtrate extractions. The percentage of E. coli DNA in the filtrate was calculated as the filtrate concentration divided by the feed concentration. Droplet digital PCR (ddPCR) was performed using QX200 ddPCR Supermix for EvaGreen (BioRad). 10% of the final reaction volume was template. Published primers targeting the uidA gene in E. coli were used at a final concentration of 500 nM. Cycling conditions consisted of 5.0 min at 95° C., followed by 40 cycles of 95° C. for 30 sec, 60° C. for 30 sec, and 72° C. for 30 sec., with final dye stabilization steps of 4° C. for 5.0 min followed by 90° C. for 5.0 min.
To investigate the mechanism of pol-aAST, experiments were performed to separate free NAs from NAs contained within structurally intact cells or associated with cell debris. Susceptible and resistant clinical isolates were exposed to β-lactams for 15 min, then filtered through […] filters to remove cells from free NAs. NAs in the sample and eluate were then quantified using droplet digital PCR (ddPCR).

Neisseria gonorrhoeae = assay: AST by inaccessible DNA, 2 incubation steps (media; TRIS pH 8.5 enhancing buffer), qPCR (Example 3); assay type: cell-based; conditions: 30 min ABX exposure then 20 min TRIS pH 8.5 ± 1% Triton X-100
Procedure: Antibiotic susceptibility test was performed with methods herein described comprising 2 sequential incubation steps, and in particular • a primary incubation in which a sample is contacted with media, antibiotic (or water in untreated sample), and a nuclease (such as DNaseI), and optionally an enhancer (such as 1% Triton X-100); and • a secondary incubation in which a cell suspension from primary incubation is contacted with enhancers such as 50 mM TRIS buffer at pH 8.5 and/or 1% Triton X-100, possibly using dilution of the cell suspension from the antibiotic exposure by 90-95% (such as 50 μL into 450 μL, 25 μL into 475 μL) removing most antibiotic, culture media, and other components from the primary incubation for the enhancer condition.
The samples were mixed before transferring 25 μL or 50 μL of the sample to the prepared secondary incubation (enhancer) tubes. The charts in step 1 were followed to add the appropriate volume of cells to each tube. Mix the tubes and proceed to step 9 immediately
Extraction was performed following the “DEB Extraction” description in the general methods using Eppendorf tubes. […]
Detection of DNA was performed following the “qPCR” description in the general methods. Quantify all DEB-extracted DNA using the Primer mix=(10 μM forward and reverse) targeting N. gonorrhoeae porA gene. […]

Antibiotic MICs (Escherichia coli; isolate Ec_1) | Antibiotic MICs (Escherichia coli; isolate Ec_2) | Antibiotic MICs (Escherichia coli; isolate Ec_3) | Antibiotic MICs (Escherichia coli; isolate Ec_4) | Antibiotic MICs (Escherichia coli; isolate Ec_38) [µg/mL] | Antibiotic MICs (Escherichia coli; isolate Ec_39) [µg/mL] | Antibiotic MICs (Escherichia coli; isolate Ec_40) | Antibiotic MICs (Escherichia coli; isolate Ec_41) [µg/mL] | Antibiotic MICs (Klebsiella pneumoniae; isolate Kp_1) | Antibiotic MICs (Klebsiella pneumoniae; isolate Kp_2) | Antibiotic MICs (Klebsiella pneumoniae; isolate Kp_7) [µg/mL] | Antibiotic MICs (Klebsiella pneumoniae; isolate Kp_8) [µg/mL] | Compound | average percentage of DNA released from susceptible isolates (E. coli isolates) [%] | fold change (1/FC) of DNA between 30 and 50 minute measurements (Neisseria gonorrhoeae; resistant isolate (ng_44)) | fold change (1/FC) of DNA between 30 and 50 minute measurements (Neisseria gonorrhoeae; susceptible-treated samples (ng_17))
<=1 μg/mL | <=1 μg/mL | <=1 μg/mL | <=1 μg/mL | >32 | >32 | >=64 μg/mL | >32 | <=1 μg/mL | <=1 μg/mL | >32 | >32 | CO/N=C(\C(=O)N[C@@H]1C(=O)N2C(C(=O)O)=C(CSc3nc(=O)c(=O)[nH]n3C)CS[C@H]12)c1csc(N)n1 [CRO, ceftriaxone] | 6 | – | –
– | – | – | – | – | – | – | – | – | – | – | – | penicillin | – | approximately 1.5 | > 5
